In patent US20260364080A1, “PYRAZOLO-PYRIMIDINONE COMPOUNDS FOR USE IN METHODS OF INHIBITING WEE1 A KINASE” (Acrivon Therapeutics, Inc., priority 2023, published 2026):
Read-outs that look alike come from different tables or passages of the source.

Columns and labels:
[1] = molecular target: T1, recombinant human Wee1A kinase (Homo sapiens, UniProt P30291); assay: Wee1A kinase binding assay (LanthaScreen Eu time-resolved FRET)
T1 construct: full length Wee1 kinase was expressed by baculovirus in insect cells; purchased Invitrogen PV3817; host or cells: insect cells (baculovirus)
T1 sequence (P30291 whole entry): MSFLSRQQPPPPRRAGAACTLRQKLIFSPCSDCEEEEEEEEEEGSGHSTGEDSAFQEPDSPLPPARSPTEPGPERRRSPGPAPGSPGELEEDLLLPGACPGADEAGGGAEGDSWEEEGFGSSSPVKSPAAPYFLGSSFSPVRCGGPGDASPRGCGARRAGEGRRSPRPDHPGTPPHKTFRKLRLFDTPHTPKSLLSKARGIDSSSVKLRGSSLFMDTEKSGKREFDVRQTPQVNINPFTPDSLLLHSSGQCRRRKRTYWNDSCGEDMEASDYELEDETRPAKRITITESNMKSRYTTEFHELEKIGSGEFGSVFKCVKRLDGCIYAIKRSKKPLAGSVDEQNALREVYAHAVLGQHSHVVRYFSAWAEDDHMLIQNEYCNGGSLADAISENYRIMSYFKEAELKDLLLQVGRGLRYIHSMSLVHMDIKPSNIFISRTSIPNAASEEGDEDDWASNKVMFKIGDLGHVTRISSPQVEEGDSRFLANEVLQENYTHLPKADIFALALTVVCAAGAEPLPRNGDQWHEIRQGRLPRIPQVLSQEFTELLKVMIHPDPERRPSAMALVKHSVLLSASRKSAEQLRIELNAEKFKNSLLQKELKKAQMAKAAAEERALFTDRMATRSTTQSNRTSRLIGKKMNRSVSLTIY
How it was run: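 Full-length, baculovirus-expressed GST-tagged Wee1A (5 nM) was mixed with 2 nM Eu-anti-GST antibody, 30 nM kinase tracer 178 and compound (1% DMSO). Buffer was 50 mM HEPES pH 7.5, 10 mM MgCl2, 1 mM EGTA, 0.01% Brij-35, incubated 60 min at room temperature. TR-FRET 665/615 nm emission ratios from duplicates were curve-fitted.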

[2] = molecular target: T2, Myt1 kinase (recombinant PMYT-1) (Homo sapiens, UniProt Q99640); assay: Myt1 kinase binding assay (LanthaScreen Eu Kinase Binding Assay)
T2 construct: full length PMYT-1 was expressed by baculovirus in insect cells; purchased Invitrogen A30984; host or cells: insect cells (baculovirus)
T2 sequence (Q99640 1-499): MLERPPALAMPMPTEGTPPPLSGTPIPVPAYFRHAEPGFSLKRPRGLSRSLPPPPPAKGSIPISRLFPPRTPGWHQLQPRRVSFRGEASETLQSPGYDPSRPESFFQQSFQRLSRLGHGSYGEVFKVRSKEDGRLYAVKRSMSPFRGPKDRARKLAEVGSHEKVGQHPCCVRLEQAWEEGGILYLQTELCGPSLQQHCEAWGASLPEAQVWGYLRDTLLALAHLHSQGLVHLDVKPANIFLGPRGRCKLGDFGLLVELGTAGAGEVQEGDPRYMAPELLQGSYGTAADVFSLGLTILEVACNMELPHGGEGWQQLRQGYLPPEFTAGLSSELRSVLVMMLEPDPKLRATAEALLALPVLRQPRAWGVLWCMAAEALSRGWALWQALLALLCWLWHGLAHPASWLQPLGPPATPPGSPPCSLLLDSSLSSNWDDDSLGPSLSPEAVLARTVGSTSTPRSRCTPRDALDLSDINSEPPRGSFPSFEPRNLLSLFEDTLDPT
How it was run: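 The binding affinity of compounds for Myt1 kinase was measured with a LanthaScreen Europium (Eu) Kinase Binding Assay, a time-resolved FRET format in which test compounds compete against a labeled kinase tracer, and the results were expressed as IC50 values describing compound binding to Myt1.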

[3] = molecular target: T3, Wee1A kinase (CDK1 Tyr15 phosphorylation in ACHN renal cell carcinoma cells) (Homo sapiens, UniProt P30291); assay: High-content imaging of pCdk1 Y15, Wee1A kinase target engagement in ACHN cells; assay type: cell-based
T3 construct: pCDK1 Tyr15 immunofluorescence read-out
T3 sequence (P30291 whole entry): as the sequence (P30291 whole entry) above
How it was run: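 ACHN cells exposed to compound for 4 h over 7–5,000 nM or 0.3–200 nM, then fixed and immunostained for pCDK1 Y15 with DAPI nuclear counterstain. The percentage of pCdk1 Y15 nucleus-positive cells relative to DMSO control was imaged per well; EC50 from dose-response curves.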

[4] = 30 nM tracer 178, 5 nM Wee1A kinase, 2 nM Eu-labeled antibody, 60 minutes at room temperature, read-out: Wee1A kinase Binding IC50
[5] = 3 nM tracer 178, 2.5 nM PMYT-1, 1 nM Eu-labeled antibody, read-out: Myt1 kinase Binding IC50
[6] = 4 h treatment, nuclear positivity for pCdk1 Y15 vs DMSO control, read-out: CDK1 Tyr15 Phosphorylation EC50
[7] = Myt1 kinase Binding IC50, 3 nM tracer 178, 2.5 nM PMYT-1, 1 nM Eu-labeled antibody
[8] = read-out: CDK1 Tyr15 Phosphorylation EC50, 4 h treatment, nuclear positivity for pCdk1 Y15 vs DMSO control

SMILES	IC50 [1, 4] [nM]	IC50 [2, 5] [nM]	EC50 [3, 6] [nM]	IC50 [1] [nM]	IC50 [2, 7] [nM]	EC50 [3, 8] [nM]
C=CCn1c(=O)c2cnc(Nc3cccc(-n4cccn4)c3)nc2n1-c1cccc(OC2CCN(C)CC2)n1 [Compound 364, 2-allyl-1-[6-(1-methyl-4-piperidyloxy)-2-pyridyl]-6-[m-(1-pyrazolyl)phenylamino]-1,2-dihydro-3H-1,2,5,7-tetraazainden-3-one]	< 10	20 to 100	< 100			
C=CCn1c(=O)c2cnc(Nc3cnn(C)c3)nc2n1-c1cccc(N(C)C2CCN(C)CC2)n1 [Compound 184, 1-{6-[methyl(1-methylpiperidin-4-yl)amino]pyridin-2-yl}-6-[(1-methyl-1H-pyrazol-4-yl)amino]-2-(prop-2-en-1-yl)-1H,2H,3H-pyrazolo[3,4-d]pyrimidin-3-one]				< 10	> 500	100 to 500
C=CCn1c(=O)c2cnc(Nc3ccc(Cl)cc3)nc2n1-c1cccc(N[C@H]2CCCNC2)n1 [Compound 165, 1-{6-[(S)-3-piperidylamino]-2-pyridyl}-2-allyl-6-(p-chlorophenylamino)-1,2-dihydro-3H-1,2,5,7-tetraazainden-3-one]	< 10	20 to 100	500 to 1000			
C=CCn1c(=O)c2cnc(Nc3ccc(C#N)cc3)nc2n1-c1cccc(OC2CCNCC2)n1 [Compound 300, p-{2-allyl-3-oxo-1-[6-(4-piperidyloxy)-2-pyridyl]-1,2-dihydro-3H-1,2,5,7-tetraazainden-6-ylamino}benzonitrile]	< 10	20 to 100	100 to 500			
C=CCn1c(=O)c2cnc(Nc3ccc4c(cnn4C)c3)nc2n1-c1cccc(O[C@@H]2CCN[C@@H](C)C2)n1 (relative stereo) [Compound 405, rel-2-allyl-6-((1-methyl-1H-indazol-5-yl)amino)-1-(6-(((2R,4S)-2-methylpiperidin-4-yl)oxy)pyridin-2-yl)-1,2-dihydro-3H-pyrazolo[3,4-d]pyrimidin-3-one]	< 10	20 to 100	< 100			
C=CCn1c(=O)c2cnc(Nc3ccc(Cl)c(Cl)c3)nc2n1-c1cccc(NC2CCNCC2)n1 [Compound 146, 2-allyl-6-(3,4-dichlorophenylamino)-1-[6-(4-piperidylamino)-2-pyridyl]-1,2-dihydro-3H-1,2,5,7-tetraazainden-3-one]	< 10	100 to 500	> 1000			
C=CCn1c(=O)c2cnc(Nc3cnn(CCC(F)(F)F)c3)nc2n1-c1cccc(N(C)C2CCN(C)CC2)n1 [Compound 201, 2-allyl-1-(6-(methyl(1-methylpiperidin-4-yl)amino)pyridin-2-yl)-6-((1-(3,3,3-trifluoropropyl)-1H-pyrazol-4-yl)amino)-1,2-dihydro-3H-pyrazolo[3,4-d]pyrimidin-3-one]				< 10	100 to 500	500 to 1000
CCn1c(=O)c2cnc(Nc3ccc4c(cnn4C)c3)nc2n1-c1cccc(NC2CCNCC2)n1 [Compound 285, 2-ethyl-6-[(1-methyl-1H-indazol-5-yl)amino]-1-{6-[(piperidin-4-yl)amino]pyridin-2-yl}-1H,2H,3H-pyrazolo[3,4-d]pyrimidin-3-one]	< 10	100 to 500	> 1000			
CCCn1c(=O)c2cnc(Nc3ccc4c(cnn4C)c3)nc2n1-c1cccc(OC2CCNCC2)n1 [Compound 110, 6-[(1-methyl-1H-indazol-5-yl)amino]-1-[6-(piperidin-4-yloxy)pyridin-2-yl]-2-propyl-1H,2H,3H-pyrazolo[3,4-d]pyrimidin-3-one]	< 10	20 to 100	100 to 500			
Cc1cc(Nc2ncc3c(=O)n(C)n(-c4cccc(OC5CCN(C)CC5)n4)c3n2)ccc1F [Compound 152, 6-(4-fluoro-3-toluidino)-2-methyl-1-[6-(1-methyl-4-piperidyloxy)-2-pyridyl]-1,2-dihydro-3H-1,2,5,7-tetraazainden-3-one]	< 10	20 to 100	100 to 500			
C=CCn1c(=O)c2cnc(Nc3ccc4nccn4c3)nc2n1-c1cccc(OC2CCN(C)CC2)n1 [Compound 328, 6-(1,3a-diaza-5-indenylamino)-2-allyl-1-[6-(1-methyl-4-piperidyloxy)-2-pyridyl]-1,2-dihydro-3H-1,2,5,7-tetraazainden-3-one]	< 10	20 to 100	100 to 500			
C=CCn1c(=O)c2cnc(Nc3cnn(C)c3)nc2n1-c1cccc(O[C@@H]2C[C@H]3CC[C@@H](C2)N3C)n1 [Compound 189, 6-[(1-methyl-1H-pyrazol-4-yl)amino]-1-(6-{[(cis)-8-methyl-8-azabicyclo[3.2.1]octan-3-yl]oxy}pyridin-2-yl)-2-(prop-2-en-1-yl)-1H,2H,3H-pyrazolo[3,4-d]pyrimidin-3-one]				< 10	> 500	500 to 1000
C=CCn1c(=O)c2cnc(Nc3ccc(C)nc3)nc2n1-c1cccc(OC2CCNCC2)n1 [Compound 237, 2-allyl-6-((6-methylpyridin-3-yl)amino)-1-(6-(piperidin-4-yloxy)pyridin-2-yl)-1,2-dihydro-3H-pyrazolo[3,4-d]pyrimidin-3-one]	< 10	20 to 100	100 to 500			
C=CCn1c(=O)c2cnc(Nc3ccc4c(cnn4C)c3)nc2n1-c1cccc(OC2CCN(C)C(C)(C)C2)n1 (stereo not drawn) [Compound 343, 2-allyl-6-((1-methyl-1H-indazol-5-yl)amino)-1-(6-((1,2,2-trimethylpiperidin-4-yl)oxy)pyridin-2-yl)-1,2-dihydro-3H-pyrazolo[3,4-d]pyrimidin-3-one]	< 10	100 to 500	100 to 500			
C=CCn1c(=O)c2cnc(Nc3ccc(Cl)c(Cl)c3)nc2n1-c1cccc(NC2CCN(C)CC2)n1 [Compound 151, 2-allyl-6-(3,4-dichlorophenylamino)-1-[6-(1-methyl-4-piperidylamino)-2-pyridyl]-1,2-dihydro-3H-1,2,5,7-tetraazainden-3-one]	< 10	100 to 500	100 to 500			
C=CCn1c(=O)c2cnc(Nc3ccc(OCCF)cc3)nc2n1-c1ccnc(OC2CCNCC2)n1 [Compound 391, 2-allyl-6-((4-(2-fluoroethoxy)phenyl)amino)-1-(2-(piperidin-4-yloxy)pyrimidin-4-yl)-1,2-dihydro-3H-pyrazolo[3,4-d]pyrimidin-3-one]	< 10	20 to 100	100 to 500			
C=CCn1c(=O)c2cnc(Nc3cccc(-c4cccnc4)c3)nc2n1-c1cccc(OC2CCN(C)CC2)n1 [Compound 368, 2-allyl-1-[6-(1-methyl-4-piperidyloxy)-2-pyridyl]-6-[m-(3-pyridyl)phenylamino]-1,2-dihydro-3H-1,2,5,7-tetraazainden-3-one]	< 10	20 to 100	100 to 500			
C=CCn1c(=O)c2cnc(Nc3ccc(F)cc3)nc2n1-c1ccnc(OC2CCNCC2)n1 [Compound 247, 2-allyl-6-((4-fluorophenyl)amino)-1-(2-((piperidin-4-yl)oxy)pyrimidin-4-yl)-1,2-dihydro-3H-pyrazolo[3,4-d]pyrimidin-3-one]	< 10	< 20	100 to 500			
Cc1cc(Nc2ncc3c(=O)n(C)n(-c4cccc(OC5CCNCC5)n4)c3n2)ccc1F [Compound 154, 6-(4-fluoro-3-toluidino)-2-methyl-1-[6-(4-piperidyloxy)-2-pyridyl]-1,2-dihydro-3H-1,2,5,7-tetraazainden-3-one]	< 10	100 to 500	100 to 500			
C=CCn1c(=O)c2cnc(Nc3cc(-c4ccccc4)ns3)nc2n1-c1cccc(NC2CCN(C)CC2)n1 [Compound 158, 2-allyl-1-[6-(1-methyl-4-piperidylamino)-2-pyridyl]-6-(3-phenyl-5-isothiazolylamino)-1,2-dihydro-3H-1,2,5,7-tetraazainden-3-one]	< 10	20 to 100	100 to 500			
